For this experiment, the target named is Methylcytosine dioxygenase TET2 (Homo sapiens) (UniProt Q6N021). Description: Binding affinity to TET2 (unknown origin) assessed as binding constant.

Kb data for 2 compounds are collected here from ChEMBL document CHEMBL6096735, “Exploring the Ascorbate Requirement of the 2-Oxoglutarate-Dependent Dioxygenases” (J Med Chem, 2025).

In the case of `O=C1O[C@H]([C@@H](O)CO)C(O)=C1O`, the Kb is 8.7 10^3/M. Turning to `O=C1O[C@H]([C@H](O)CO)C(O)=C1O`, the Kb is 8.7 10^3/M.
